Drawing on patent US10160772B2, “5,6-dihydro-4H-benzo[b]thieno-[2,3-d]azepine derivatives” (PULMOCIDE LIMITED, priority 2014, dated 2018), this text covers CC50, IC50 and inhibition for twelve molecules.

As a reminder, the CC50 is the concentration giving 50% cytotoxicity. Low readings indicate harm at low concentration, high ones better tolerance by the cells. For orientation: IC50 means the concentration at which inhibition is half-maximal. Usually inhibition stands for the relative decrease from the control value, in per cent.

Structures are written as SMILES. Like-named read-outs stand apart in the source and are kept apart here.

Common to all, as to format: cell-based
Data set [1] can be described thus: Cell viability: resazurin assay in Hep2 cells. The note with it: human, 5 days incubation. As for the experimental part:
Cell Viability: Resazurin Assay Hep2 cells were seeded in 384-well plates (10^3/well/50 μL; BD Falcon Ref 353962) in FBS DMEM (5%, containing 2 mM L-glutamine and 1 mM sodium pyruvate) one day before experimentation. Serum-free DMEM (50 μL) was added to test wells while for control wells the media was removed and sterile water (100 μL) was added. Test compounds (0.5 μL DMSO solution) were added to give a final DMSO concentration of 0.5%. Hep2 cells were incubated with each test compound for 5 days (37° C./5% CO2 in 5% FBS) and then resazurin stock solution (5 μL; 0.03%) was added to each well and the plate incubated further for a further 6 hrs (37° C./5% CO2). The fluorescence of each well at 545 nm (excitation) and 590 nm (emission) was determined using a multi-scanner (Clariostar: BMG Labtech). The percentage loss of cell viability was calculated for each well relative to vehicle (0.5% DMSO) treatment. Where appropriate, a CC50 value was calculated from the concentration-response curve generated from the concentration-response curve for each test compound.

Data set [2] relates to RSV A2 strain. Briefly: RSV A2-induced CPE in Hep2 cells. The note with it: human respiratory syncytial virus; for IC50: HEp-2, 120 h, read-out: RSV A2 CPE IC50; for inhibition at 0.01 µg/mL: at 0.01 μg/mL (footnote 2). Here is the method:
(§1) Biological Testing: Experimental Methods Assessment of RSV Induced CPE in Hep2 Cells
(§2) Hep2 cells were seeded (10^3/well/50 μL) in 384-well plates (Catalogue number 353962, BD Falcon, Oxford, UK) in 5% serum free-DMEM containing 2 mM L-glutamine and 1 mM sodium pyruvate one day before infection. RSV A2 strain (#0709161v, NCPV, Public Health England, Wiltshire) or RSV B Washington strain (VR-1580, ATCC, Manassas, Va. 20108) virus solutions were prepared in serum free-DMEM with 2 mM L-glutamine and 1 mM sodium pyruvate, and then added (50 μL/well) to achieve a final virus concentration of 1 MOI for RSV A and 0.1MOI for RSV B. Simultaneously test compounds (0.5 μL DMSO solution) were added to 100 μL of Hep2 cell culture with virus solution to provide a final DMSO solution of 0.5%. Plates were incubated (37° C./5% CO2) for 5 days for studies using RSV A2 strain or 6 days for those using RSV B strain, and then resazurin sodium salt (5 μL of 0.03% solution; Sigma-Aldrich, Dorset, UK) was added to each well and the plate incubated for a further 6 hr (37° C. and 5% CO2). The fluorescence of each well [545 nm (excitation)/590 nm (emission)] was determined using a multi-scanner (Clariostar: BMG, Buckinghamshire, UK). The percentage inhibition for each well was calculated and the IC50, IC75 and IC90 values were calculated from the concentration-response curve generated for each test compound.

Data set [3] relates to RSV B Washington strain. Nature of the data set: RSV B-induced CPE in Hep2 cells. Particulars: human respiratory syncytial virus; for IC50: HEp-2, 144 h, read-out: RSV B CPE IC50. As for the experimental part: as §1, §2
[4] abbreviates: Hep2 cells, RSV A2 1 MOI, 5 days, resazurin.
The mark [5] stands for this setting: HEp-2, Hep2 cells, read-out: RSV A2 CPE % Inhibition.
The mark [6] stands for this setting: Hep2 cells, RSV B Washington 0.1 MOI, 6 days, resazurin.
Where [7] appears, read: HEp-2, Hep2 cells, at 1 μg/mL, read-out: RSV B CPE % Inhibition.
Where [8] appears, read: HEp-2, Hep2 cells, at 0.1 μg/mL, read-out: RSV A2 CPE % Inhibition.

As to `Cc1cccc2nc(-c3cc4c(s3)-c3ccccc3N(C(=O)c3ccc(NC(=O)c5cccnc5N5CC6(CCOCC6)C5)cc3)CC4)[nH]c12` [Example 1, N-(4-(2-(7-Methyl-1H-benzo[d]imidazol-2-yl)-5,6-dihydro-4H-benzo[b]thieno[2,3-d]azepine-6-carbonyl)phenyl)-2-(7-oxa-2-azaspiro[3.5]nonan-2-yl)nicotinamide], the half-maximal cytotoxic concentration (CC50) at 5 days in data set [1] was > 14.7 µM. Moreover, the IC50 in data set [2] worked out at 0.21 nM; in data set [3] it was 84.7 nM. Further, the inhibition at 0.1 µg/mL in data set [2] (HEp-2, read-out: RSV A2 CPE % Inhibition) worked out at 100%. Moreover, the inhibition at 1 µg/mL in data set [3] (HEp-2, read-out: RSV B CPE % Inhibition) is 100%.
As for `CCc1cnc(N2CC3(CCOCC3)C2)c(C(=O)Nc2ccc(C(=O)N3CCc4cc(-c5nc6ccccc6[nH]5)sc4-c4ccccc43)cc2)c1` [Example 4, N-(4-(2-(1H-Benzo[d]imidazol-2-yl)-5,6-dihydro-4H-benzo[b]thieno[2,3-d]azepine-6-carbonyl)phenyl)-5-ethyl-2-(7-oxa-2-azaspiro[3,5]nonan-2-yl)nicotinamide], the CC50 at 5 days in data set [1] is > 14.4 µM. Moreover, the half-maximal inhibitory concentration (IC50) in data set [2] (setting [4]) stood at 0.66 nM; in data set [3] (setting [6]), 13.3 nM. Also, in data set [2] (setting [5]), the inhibition at 0.01 µg/mL came out at 86%. Also, the inhibition at 1 µg/mL in data set [3] (setting [7]) was found to be 100%.
On to `O=C(Nc1ccc(C(=O)N2CCc3cc(-c4nc5cccc(F)c5[nH]4)sc3-c3ccccc32)cc1)c1cccnc1N1CC2(CCOCC2)C1` [Example 8, N-(4-(2-(7-fluoro-1H-benzo[d]imidazol-2-yl)-5,6-dihydro-4H-benzo[b]thieno[2,3-d]azepine-6-carbonyl)phenyl)-2-(7-oxa-2-azaspiro[3.5]nonan-2-yl)nicotinamide], for which, in data set [1], the CC50 at 5 days was > 14.6 µM. The results for the IC50 in data set [2] (setting [4]) and in data set [3] (setting [6]) were 0.18 nM and 26.8 nM, respectively. In addition, the inhibition at 0.1 µg/mL in data set [2] (setting [8]) is 100%. Besides, in data set [3] (setting [7]), the inhibition at 1 µg/mL is 100%.
As for `O=C(Nc1ccc(C(=O)N2CCc3cc(-c4nc5cccc(Cl)c5[nH]4)sc3-c3ccccc32)cc1)c1cccnc1N1CC2(CCOCC2)C1` [Example 9, N-(4-(2-(7-chloro-1H-benzo[d]imidazol-2-yl)-5,6-dihydro-4H-benzo[b]thieno[2,3-d]azepine-6-carbonyl)phenyl)-2-(7-oxa-2-azaspiro[3.5]nonan-2-yl)nicotinamide], the CC50 at 5 days in data set [1] was > 14.3 µM. In addition, the values for the IC50 in data set [2] (setting [4]) and in data set [3] (setting [6]) were 0.67 nM and 44.1 nM, respectively. Also, in data set [2] (setting [8]), the inhibition at 0.1 µg/mL was found to be 100%. Further, the inhibition at 1 µg/mL in data set [3] (setting [7]) was found to be 100%.
With `O=C(Nc1ccc(C(=O)N2CCc3cc(-c4nc5cccc(C(F)(F)F)c5[nH]4)sc3-c3ccccc32)cc1)c1cccnc1N1CC2(CCOCC2)C1` [Example 10, 2-(7-oxa-2-azaspiro[3.5]nonan-2-yl)-N-(4-(2-(7-(trifluoromethyl)-1H-benzo[d]imidazol-2-yl)-5,6-dihydro-4H-benzo[b]thieno[2,3-d]azepine-6-carbonyl)phenyl)nicotinamide], in data set [1], the CC50 at 5 days is > 13.6 µM. Also, the figures for the 50% inhibitory concentration (IC50) in data set [2] (setting [4]) and in data set [3] (setting [6]) were 0.14 nM and 62 nM, respectively. For the same molecule, in data set [2] (setting [8]), the inhibition at 0.1 µg/mL is 100%. In data set [3] (setting [7]), the inhibition at 1 µg/mL stood at 100%.
For the molecule `Cc1ccc2nc(-c3cc4c(s3)-c3ccccc3N(C(=O)c3ccc(NC(=O)c5cccnc5N5CC6(CCOCC6)C5)cc3)CC4)[nH]c2c1` [Example 11, N-(4-(2-(6-methyl-1H-benzo[d]imidazol-2-yl)-5,6-dihydro-4H-benzo[b]thieno[2,3-d]azepine-6-carbonyl)phenyl)-2-(7-oxa-2-azaspiro[3.5]nonan-2-yl)nicotinamide], the CC50 at 5 days in data set [1] was > 14.7 µM. The IC50 in data set [2] (setting [4]) turned out to be 0.28 nM; in data set [3] (setting [6]), 45.7 nM. For the same molecule, the inhibition at 0.1 µg/mL in data set [2] (setting [8]) came out at 100%. Further, the inhibition at 1 µg/mL in data set [3] (setting [7]) worked out at 100%.
For `Cc1cnc(N2CC3(CCOCC3)C2)c(C(=O)Nc2ccc(C(=O)N3CCc4cc(-c5nc6ccccc6[nH]5)sc4-c4ccccc43)cc2)c1` [Example 13, N-(4-(2-(1H-benzo[d]imidazol-2-yl)-5,6-dihydro-4H-benzo[b]thieno[2,3-d]azepine-6-carbonyl)phenyl)-5-methyl-2-(7-oxa-2-azaspiro[3.5]nonan-2-yl)nicotinamide], the CC50 at 5 days in data set [1] is > 14.7 µM. In addition, the values for the half-inhibitory concentration (IC50) in data set [2] (setting [4]) and in data set [3] (setting [6]) were 0.085 nM and 0.99 nM, respectively. Moreover, the inhibition at 0.1 µg/mL in data set [2] (setting [8]) was 100%. Further, the inhibition at 1 µg/mL in data set [3] (setting [7]) was found to be 100%.
As for `Cc1cnc(N2CC3(CCOCC3)C2)c(C(=O)Nc2ccc(C(=O)N3CCc4cc(-c5nc6cccc(Cl)c6[nH]5)sc4-c4ccccc43)cc2)c1` [Example 15, N-(4-(2-(7-chloro-1H-benzo[d]imidazol-2-yl)-5,6-dihydro-4H-benzo[b]thieno[2,3-d]azepine-6-carbonyl)phenyl)-5-methyl-2-(7-oxa-2-azaspiro[3.5]nonan-2-yl)nicotinamide], the CC50 at 5 days in data set [1] is > 14 µM. For the same molecule, the IC50 in data set [2] (setting [4]) was found to be 0.17 nM; in data set [3] (setting [6]) it was 83.3 nM. Further, the inhibition at 0.1 µg/mL in data set [2] (setting [8]) came out at 85%. The inhibition at 1 µg/mL in data set [3] (setting [7]) was found to be 100%.
For `Cc1cnc(N2CC3(CCOCC3)C2)c(C(=O)Nc2ccc(C(=O)N3CCc4cc(-c5nc6cccc(C)c6[nH]5)sc4-c4ccccc43)cc2)c1` [Example 16, 5-methyl-N-(4-(2-(7-methyl-1H-benzo[d]imidazol-2-yl)-5,6-dihydro-4H-benzo[b]thieno[2,3-d]azepine-6-carbonyl)phenyl)-2-(7-oxa-2-azaspiro[3.5]nonan-2-yl)nicotinamide], in that order: > 14.4 µM, 0.11 nM, 16 nM, 100% and 99%.
With `Cc1cnc(N2CC3(CCOCC3)C2)c(C(=O)Nc2ccc(C(=O)N3CCc4cc(-c5nc6cccc(C(F)(F)F)c6[nH]5)sc4-c4ccccc43)cc2)c1` [Example 17, 5-methyl-2-(7-oxa-2-azaspiro[3.5]nonan-2-yl)-N-(4-(2-(7-(trifluoromethyl)-1H-benzo[d]imidazol-2-yl)-5,6-dihydro-4H-benzo[b]thieno[2,3-d]azepine-6-carbonyl)phenyl)nicotinamide], the CC50 at 5 days in data set [1] was > 13.4 µM. Further, the IC50 in data set [2] (setting [4]) was found to be 0.11 nM; in data set [3] (setting [6]), 13.2 nM. Besides, the inhibition at 0.1 µg/mL in data set [2] (setting [8]) came out at 100%. Besides, the inhibition at 1 µg/mL in data set [3] (setting [7]) was determined as 100%.
On to `Cc1cnc(N2CC3(CCOCC3)C2)c(C(=O)Nc2ccc(C(=O)N3CCc4cc(-c5nc6cccc(C#N)c6[nH]5)sc4-c4ccccc43)cc2)c1` [Example 18, N-(4-(2-(7-cyano-1H-benzo[d]imidazol-2-yl)-5,6-dihydro-4H-benzo[b]thieno[2,3-d]azepine-6-carbonyl)phenyl)-5-methyl-2-(7-oxa-2-azaspiro[3.5]nonan-2-yl)nicotinamide], for which the 50% cytotoxic concentration (CC50) at 5 days in data set [1] was > 14.2 µM. For the same molecule, the IC50 in data set [2] (setting [4]) is 0.28 nM; in data set [3] (setting [6]), 7.4 nM. In data set [2] (setting [8]), the inhibition at 0.1 µg/mL came to 100%. The inhibition at 1 µg/mL in data set [3] (setting [7]) is 100%.
As to `Cc1cnc(N2CC3(CCOCC3)C2)c(C(=O)Nc2ccc(C(=O)N3CCc4cc(-c5nc6cc(F)cc(F)c6[nH]5)sc4-c4ccccc43)cc2)c1` [Example 19, N-(4-(2-(5,7-difluoro-1H-benzo[d]imidazol-2-yl)-5,6-dihydro-4H-benzo[b]thieno[2,3-d]azepine-6-carbonyl)phenyl)-5-methyl-2-(7-oxa-2-azaspiro[3.5]nonan-2-yl)nicotinamide], the 50% cytotoxic concentration (CC50) at 5 days in data set [1] is > 14 µM. Moreover, the IC50 amounted to 0.96 nM in data set [2] (setting [4]) and 6.3 nM in data set [3] (setting [6]). Moreover, in data set [2] (setting [5]), the inhibition at 0.01 µg/mL came out at 88%. The inhibition at 1 µg/mL in data set [3] (setting [7]) was 100%.
